Values of other authors in paper PMC6680430, “Quantitative Prediction of Human Pharmacokinetics and Pharmacodynamics of CKD519, a Potent Inhibitor of Cholesteryl Ester Transfer Protein (CETP)” (Pharmaceutics, 2019).

Tested on: CETP
Settings: cited from earlier work

For COc1cc(F)c(C(C)C)cc1-c1ccc(C(F)(F)F)cc1CN1C(=O)O[C@H](c2cc(C(F)(F)F)cc(C(F)(F)F)c2)[C@@H]1C [anacetrapib], the “peak effect, inhibition of CETP” value (exposure-response from literature) is given as ~ 90% and the IC50 (known in vivo value for the comparator, read-out: in vivo IC50 (plasma concentration for half of maximum CETP inhibition)) is given as 22 nM.
